# Measured values: the supplement of paper PMC10733146
# How the values were obtained:
# Assay in all cases: viability relative to DMSO control (fraction); higher = less drug effect (more viable cells)
# Details in all cases: 48 h
# Palbociclib = compound: CC(=O)c1c(C)c2cnc(Nc3ccc(N4CCNCC4)cn3)nc2n(C2CCCC2)c1=O [Palbociclib]
# Outline: (§1)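 The cells were primary mononuclear tumour cells, either fresh or cryopreserved, isolated by Ficoll from blood or bone marrow or derived from processed lymph node. Each well of a 384-well plate received 4 × 10^4 cells onto compounds pre-plated at five concentrations, with one well per concentration. The medium was RPMI-1640 with penicillin/streptomycin, L-glutamine and human serum, and plates stood at 37 °C and 5% CO2 for 48 h. Viability is reported as CellTiter-Glo luminescence relative to the median of 16 inner DMSO wells.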
# SGC 0946 = compound: CC(C)N(CCCNC(=O)Nc1ccc(C(C)(C)C)cc1)C[C@H]1O[C@@H](n2cc(Br)c3c(N)ncnc32)[C@H](O)[C@@H]1O [SGC 0946]
# Outline: as §1
# Navitoclax = compound: CC1(C)CCC(c2ccc(Cl)cc2)=C(CN2CCN(c3ccc(C(=O)NS(=O)(=O)c4ccc(N[C@H](CCN5CCOCC5)CSc5ccccc5)c(S(=O)(=O)C(F)(F)F)c4)cc3)CC2)C1 [Navitoclax]
# Outline: as §1
# Barasertib = compound: CCN(CCCOc1ccc2c(Nc3cc(CC(=O)Nc4cccc(F)c4)[nH]n3)ncnc2c1)CCOP(=O)(O)O [Barasertib]
# Outline: as §1
# EPZ-6438 = compound: CCN(c1cc(-c2ccc(CN3CCOCC3)cc2)cc(C(=O)NCc2c(C)cc(C)[nH]c2=O)c1C)C1CCOCC1 [EPZ-6438]
# Outline: as §1
# [1] = compound: CCc1ccc(/C=C2/SC(=S)NC2=O)cc1
# Outline: as §1
# Midostaurin hydrate = compound: CO[C@@H]1[C@H](N(C)C(=O)c2ccccc2)C[C@H]2O[C@]1(C)n1c3ccccc3c3c4c(c5c6ccccc6n2c5c31)C(=O)NC4 [Midostaurin hydrate]
# Outline: as §1
# Etoposide = compound: COc1cc([C@@H]2c3cc4c(cc3[C@@H](O[C@@H]3O[C@@H]5CO[C@@H](C)O[C@H]5[C@H](O)[C@H]3O)[C@H]3COC(=O)[C@H]23)OCO4)cc(OC)c1O [Etoposide]
# Outline: as §1
# Tofacitinib = compound: C[C@@H]1CCN(C(=O)CC#N)C[C@@H]1N(C)c1ncnc2[nH]ccc12 [Tofacitinib]
# Outline: as §1
# [2] = compound: C[C@H](NC(=O)CCC(F)(F)F)C(=O)N[C@@H]1C(=O)N(CCO)c2ncccc2-c2ccccc21
# Outline: as §1
# Duvelisib = compound: C[C@H](Nc1ncnc2nc[nH]c12)c1cc2cccc(Cl)c2c(=O)n1-c1ccccc1 [Duvelisib]
# Outline: as §1
# Pomalidomide = compound: Nc1cccc2c1C(=O)N(C1CCC(=O)NC1=O)C2=O [Pomalidomide]
# Outline: as §1
# Selinexor = compound: O=C(/C=C\n1cnc(-c2cc(C(F)(F)F)cc(C(F)(F)F)c2)n1)NNc1cnccn1 [Selinexor]
# Outline: as §1
# Filgotinib = compound: O=C(Nc1nc2cccc(-c3ccc(CN4CCS(=O)(=O)CC4)cc3)n2n1)C1CC1 [Filgotinib]
# Outline: as §1
# Chlorambucil = compound: O=C(O)CCCc1ccc(N(CCCl)CCCl)cc1 [Chlorambucil]
# Outline: as §1
test system,measurement,setting,value
primary ALL patient cells (S088),viability,Palbociclib; 0.024 µM,0.877
same,viability,Palbociclib; 0.12 µM,0.767
same,viability,Palbociclib; 0.6 µM,0.654
same,viability,Palbociclib; 3 µM,0.481
same,viability,Palbociclib; 15 µM,0.108
same,viability,SGC 0946; 0.024 µM,0.722
same,viability,SGC 0946; 0.12 µM,0.733
same,viability,SGC 0946; 0.6 µM,0.667
same,viability,SGC 0946; 3 µM,0.681
same,viability,SGC 0946; 15 µM,0.289
same,viability,Navitoclax; 0.0032 µM,1.01
same,viability,Navitoclax; 0.016 µM,0.751
same,viability,Navitoclax; 0.08 µM,0.386
same,viability,Navitoclax; 0.4 µM,0.189
same,viability,Navitoclax; 2 µM,0.106
same,viability,Barasertib; 0.0008 µM,0.716
same,viability,Barasertib; 0.004 µM,0.61
same,viability,Barasertib; 0.02 µM,0.415
same,viability,Barasertib; 0.1 µM,0.614
same,viability,Barasertib; 0.5 µM,0.588
same,viability,EPZ-6438; 0.024 µM,1.03
same,viability,EPZ-6438; 0.12 µM,1.03
same,viability,EPZ-6438; 0.6 µM,1.02
same,viability,EPZ-6438; 3 µM,0.928
same,viability,EPZ-6438; 15 µM,0.742
same,viability,[1]; 0.024 µM,0.202
same,viability,[1]; 0.12 µM,0.324
same,viability,[1]; 0.6 µM,0.591
same,viability,[1]; 3 µM,0.593
same,viability,[1]; 15 µM,0.571
same,viability,Midostaurin hydrate; 0.024 µM,0.899
same,viability,Midostaurin hydrate; 0.12 µM,0.858
same,viability,Midostaurin hydrate; 0.6 µM,0.717
same,viability,Midostaurin hydrate; 3 µM,0.489
same,viability,Midostaurin hydrate; 15 µM,0.265
same,viability,Etoposide; 0.032 µM,0.996
same,viability,Etoposide; 0.16 µM,0.93
same,viability,Etoposide; 0.8 µM,0.856
same,viability,Etoposide; 4 µM,0.607
same,viability,Etoposide; 20 µM,0.216
same,viability,Tofacitinib; 0.024 µM,0.703
same,viability,Tofacitinib; 0.12 µM,0.707
same,viability,Tofacitinib; 0.6 µM,0.702
same,viability,Tofacitinib; 3 µM,0.78
same,viability,Tofacitinib; 15 µM,0.662
same,viability,[2]; 0.016 µM,1.08
same,viability,[2]; 0.08 µM,1.11
same,viability,[2]; 0.4 µM,1.08
same,viability,[2]; 2 µM,1.09
same,viability,[2]; 10 µM,1.05
same,viability,Duvelisib; 0.0016 µM,0.927
same,viability,Duvelisib; 0.008 µM,0.988
same,viability,Duvelisib; 0.04 µM,0.879
same,viability,Duvelisib; 0.2 µM,0.85
same,viability,Duvelisib; 1 µM,0.691
same,viability,Pomalidomide; 0.0032 µM,0.934
same,viability,Pomalidomide; 0.016 µM,1.08
same,viability,Pomalidomide; 0.08 µM,1.15
same,viability,Pomalidomide; 0.4 µM,1.05
same,viability,Pomalidomide; 2 µM,1.1
same,viability,Selinexor; 0.008 µM,0.494
same,viability,Selinexor; 0.04 µM,0.339
same,viability,Selinexor; 0.2 µM,0.115
same,viability,Selinexor; 1 µM,0.0421
same,viability,Selinexor; 5 µM,0.0377
same,viability,Filgotinib; 0.024 µM,0.831
same,viability,Filgotinib; 0.12 µM,0.961
same,viability,Filgotinib; 0.6 µM,0.825
same,viability,Filgotinib; 3 µM,0.893
same,viability,Filgotinib; 15 µM,0.751
same,viability,Chlorambucil; 0.032 µM,1.02
same,viability,Chlorambucil; 0.16 µM,1
same,viability,Chlorambucil; 0.8 µM,0.981
same,viability,Chlorambucil; 4 µM,0.71
same,viability,Chlorambucil; 20 µM,0.267
primary AML patient cells (S060),viability,Palbociclib; 0.024 µM,1.02
same,viability,Palbociclib; 0.12 µM,1
same,viability,Palbociclib; 0.6 µM,1.01
same,viability,Palbociclib; 3 µM,0.939
same,viability,Palbociclib; 15 µM,0.611
same,viability,SGC 0946; 0.024 µM,1.02
same,viability,SGC 0946; 0.12 µM,1.06
same,viability,SGC 0946; 0.6 µM,1
same,viability,SGC 0946; 3 µM,0.955
same,viability,SGC 0946; 15 µM,0.822
same,viability,Navitoclax; 0.0032 µM,1.03
same,viability,Navitoclax; 0.016 µM,1.01
same,viability,Navitoclax; 0.08 µM,1.02
same,viability,Navitoclax; 0.4 µM,1.02
same,viability,Navitoclax; 2 µM,1
same,viability,Barasertib; 0.0008 µM,0.905
same,viability,Barasertib; 0.004 µM,0.901
same,viability,Barasertib; 0.02 µM,0.935
same,viability,Barasertib; 0.1 µM,0.907
same,viability,Barasertib; 0.5 µM,0.949
same,viability,EPZ-6438; 0.024 µM,1.02
same,viability,EPZ-6438; 0.12 µM,1.05
same,viability,EPZ-6438; 0.6 µM,1.03
same,viability,EPZ-6438; 3 µM,1.05
same,viability,EPZ-6438; 15 µM,1.05
same,viability,[1]; 0.024 µM,0.968
same,viability,[1]; 0.12 µM,0.967
same,viability,[1]; 0.6 µM,0.988
same,viability,[1]; 3 µM,0.943
same,viability,[1]; 15 µM,0.986
same,viability,Midostaurin hydrate; 0.024 µM,1.06
same,viability,Midostaurin hydrate; 0.12 µM,1.02
same,viability,Midostaurin hydrate; 0.6 µM,1.07
same,viability,Midostaurin hydrate; 3 µM,1.08
same,viability,Midostaurin hydrate; 15 µM,1.07
same,viability,Etoposide; 0.032 µM,1.06
same,viability,Etoposide; 0.16 µM,0.964
same,viability,Etoposide; 0.8 µM,1.01
same,viability,Etoposide; 4 µM,1.13
same,viability,Etoposide; 20 µM,1.1
same,viability,Tofacitinib; 0.024 µM,0.977
same,viability,Tofacitinib; 0.12 µM,0.93
same,viability,Tofacitinib; 0.6 µM,0.946
same,viability,Tofacitinib; 3 µM,0.893
same,viability,Tofacitinib; 15 µM,0.907
same,viability,[2]; 0.016 µM,1.09
same,viability,[2]; 0.08 µM,1.06
same,viability,[2]; 0.4 µM,0.976
same,viability,[2]; 2 µM,1.05
same,viability,[2]; 10 µM,0.92
same,viability,Duvelisib; 0.0016 µM,1.01
same,viability,Duvelisib; 0.008 µM,1.03
same,viability,Duvelisib; 0.04 µM,0.973
same,viability,Duvelisib; 0.2 µM,1.01
same,viability,Duvelisib; 1 µM,0.968
same,viability,Pomalidomide; 0.0032 µM,0.934
same,viability,Pomalidomide; 0.016 µM,1
same,viability,Pomalidomide; 0.08 µM,0.994
same,viability,Pomalidomide; 0.4 µM,0.992
same,viability,Pomalidomide; 2 µM,1.05
same,viability,Selinexor; 0.008 µM,1.04
same,viability,Selinexor; 0.04 µM,1.01
same,viability,Selinexor; 0.2 µM,1.01
same,viability,Selinexor; 1 µM,1.03
same,viability,Selinexor; 5 µM,0.853
same,viability,Filgotinib; 0.024 µM,0.927
same,viability,Filgotinib; 0.12 µM,0.935
same,viability,Filgotinib; 0.6 µM,0.908
same,viability,Filgotinib; 3 µM,0.917
same,viability,Filgotinib; 15 µM,0.129
same,viability,Chlorambucil; 0.032 µM,0.973
same,viability,Chlorambucil; 0.16 µM,0.975
same,viability,Chlorambucil; 0.8 µM,1.02
same,viability,Chlorambucil; 4 µM,1.05
same,viability,Chlorambucil; 20 µM,1.06
